Experimental data as given in ChEMBL document CHEMBL1201862, “PubChem BioAssay data set” (2004).
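Method: 48-hour compound exposure of cells in 96-well plates, five concentrations, linear interpolation of endpoints. GI50 = concentration required for 50% inhibition of growth.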 Activity calls are given as the source filed them. No stated cut-off is given here; in the data, active = GI50 up to about 1.1 µM and inactive = higher.

Assays:
Experiment in all cases: NCI anticancer screen, dose series, 48 h
EKVX = test system: EKVX
SR = test system: SR
SW-620 = test system: SW-620
A498 = test system: A498
SN12C = test system: SN12C
M14 = test system: M14
HCT-15 = test system: HCT-15
786-0 = test system: 786-0
SF-539 = test system: SF-539
CAKI-1 = test system: CAKI-1
SK-OV-3 = test system: SK-OV-3
CCRF-CEM = test system: CCRF-CEM
NCI-H226 = test system: NCI-H226
SNB-75 = test system: SNB-75
HT-29 = test system: HT-29
IGROV-1 = test system: IGROV-1
NCI-H522 = test system: NCI-H522

| Structure (SMILES) | GI50 (EKVX) | GI50 (SR) | GI50 (SW-620) | GI50 (A498) | GI50 (SN12C) | GI50 (M14) | GI50 (HCT-15) | GI50 (786-0) | GI50 (SF-539) | GI50 (CAKI-1) | GI50 (SK-OV-3) | GI50 (CCRF-CEM) | GI50 (NCI-H226) | GI50 (SNB-75) | GI50 (HT-29) | GI50 (IGROV-1) | GI50 (NCI-H522) |
| --- | --- | --- | --- | --- | --- | --- | --- | --- | --- | --- | --- | --- | --- | --- | --- | --- | --- |
| COc1ccc(C#CCC(OC2OC(CO)C(O)C(O)C2O)C(O)c2ccc(OC)c(OC)c2)cc1OC (stereo not given) | 81.3 µM (inactive) | > 100 µM (inactive) | > 100 µM (inactive) | > 100 µM (inactive) | > 100 µM (inactive) | > 100 µM (inactive) | > 100 µM | > 100 µM (inactive) | > 100 µM (inactive) | > 100 µM (inactive) | > 100 µM (inactive) | 36.6 µM (inactive) | > 100 µM (inactive) | > 100 µM (inactive) | > 100 µM (inactive) | > 100 µM (inactive) | > 100 µM (inactive) |
| [C-]#[N+]C(C)(C)C[C@H]1CC(C)C2CCC(C)C3([N+]#[C-])CCC(=C)C1[C@H]23 (stereo not given in full) | 6.55 µM (inactive) | 0.418 µM (active) | 5.08 µM (inactive) | 7.96 µM (inactive) | 0.195 µM (active) | 1.95 µM (inactive) |  | 2.34 µM (inactive) | 3.37 µM (inactive) | 3.19 µM (inactive) | 3.69 µM (inactive) | 2.37 µM (inactive) | 2.32 µM (inactive) | 8.32 µM (inactive) | 0.413 µM (active) | 1.34 µM (inactive) | 1.95 µM (inactive) |
| Cc1cc(N(CCC#N)CCC#N)ccc1/C=C1N=C(/C=C\c2ccccc2)N(c2ccc(C(=O)O)cc2)C\1=O |  | > 100 µM (inactive) | > 100 µM (inactive) | > 100 µM (inactive) | > 100 µM (inactive) | > 100 µM (inactive) | > 100 µM | > 100 µM (inactive) | > 100 µM (inactive) | > 100 µM (inactive) | > 100 µM (inactive) | > 100 µM (inactive) | > 100 µM (inactive) | > 100 µM (inactive) | > 100 µM (inactive) | > 100 µM (inactive) | > 100 µM (inactive) |
| CC(/C=C/c1ccccc1)=N\N=C(C)\C=C\c1ccccc1 | > 100 µM (inactive) | > 100 µM (inactive) | > 100 µM (inactive) | > 100 µM (inactive) | > 100 µM (inactive) | > 100 µM (inactive) | > 100 µM | > 100 µM (inactive) |  |  | > 100 µM (inactive) | > 100 µM (inactive) | > 100 µM (inactive) | 42.2 µM (inactive) | > 100 µM (inactive) | > 100 µM (inactive) | > 100 µM (inactive) |
| COc1ccc(NC(=O)C(=O)Cc2ccc([N+](=O)[O-])c([N+](=O)[O-])c2CC(=O)C(=O)Nc2ccc(OC)cc2OC)c(OC)c1 | > 100 µM (inactive) | > 100 µM (inactive) | > 100 µM (inactive) | > 100 µM (inactive) | > 100 µM (inactive) | > 100 µM (inactive) | > 100 µM | > 100 µM (inactive) |  | > 100 µM (inactive) | > 100 µM (inactive) | > 100 µM (inactive) | > 100 µM (inactive) | 96.2 µM (inactive) | > 100 µM (inactive) | > 100 µM (inactive) | 58.6 µM (inactive) |
| ClC[Si]12OCCN(CCO1)CCO2 |  | > 100 µM (inactive) | > 100 µM (inactive) | > 100 µM (inactive) | > 100 µM (inactive) |  |  | > 100 µM (inactive) | > 100 µM (inactive) | > 100 µM (inactive) | > 100 µM (inactive) | > 100 µM (inactive) | > 100 µM (inactive) | > 100 µM (inactive) | > 100 µM (inactive) | > 100 µM (inactive) | > 100 µM (inactive) |
| CCC1C2C=CC(CC2)N1S(=O)(=O)c1ccc(C)cc1 (stereo not given) | 27.8 µM (inactive) | 22.4 µM (inactive) | 16.8 µM (inactive) | 33.9 µM (inactive) | 16.4 µM (inactive) | 31 µM (inactive) | 22.8 µM | 31.9 µM (inactive) | 20.7 µM (inactive) | 20.8 µM (inactive) | 26.1 µM (inactive) | 22.4 µM (inactive) | 0.283 µM (active) | > 10 µM (inactive) | 24.4 µM (inactive) |  | 20.8 µM (inactive) |
